Results as given in patent US6960574B2, “Antagonists of RF-amide neuropeptides” (University of Florida, priority 2002, dated 2005).
Peptide text beside a SMILES is read from it. * marks the point of attachment. Dansyl = CN(C)c1cccc2c(S(=O)(=O)*)cccc12; Desaminotyrosyl = O=C(CCc1ccc(O)cc1)*

What was measured:
[1] = target: receptor labeled by the radioiodinated analogue of 1 (4, [125I]-YLFQPQRF-NH2); neuropeptide FF receptor; test: Competitive radioligand binding against 4 ([125I]Y8F-amide); conditions: for Ki: competition against 4; for Relative Binding Index (RBI): mixture-based positional scanning, difference from averaged radioligand displacement of whole library (0), about 80 a.u. = 10-fold change in Ki
[2] = Immobilized artificial membrane (IAM) chromatography; type: physicochemical
Source text: The purity of this new neuropeptide FF antagonist was confirmed by combustion analysis [Table 1] (data were within ±0.4% of calculated values) and ESI mass spectrometry (no impurities exceeding 1% based on relative ion abundance). […] The compounds were also characterized by immobilized artificial membrane (IAM) chromatography, a method that furnishes capacity factors whose logarithm generally correlates with in vivo absorption [Pidgeon, et al., J. Med. Chem. 1995, 38, 590-594] including penetration across the BBB [Reichel, et al., Pharm. Res. 1998, 15, 1270-1274].
The combinatorial libraries herein were prepared on a SynPep (Dublin, Calif.) multiple peptide synthesizer. A Synthor 2000, Peptide International (Louisville, Ky.) instrument was used for the preparation of the individual compounds by Fmoc chemistry. Immobilized artificial membrane (IAM) chromatography was performed on a system that included a model SP 8810 precision isocratic pump, an SP 8880 autosampler with a 20-μL injection loop, an SP 8450 variable wavelength UV/VIS detector operated at 254 nm, and SP 4290 computing integrator (all from ThermoSeparation|SpectraPhysics, Fremont, Calif.). RP-HPLC purification was done on a system composed of an SP 200 binary gradient pump (ThermoSeparation), a Rheodyne (Cotati, Calif.) model 7125 injector valve equipped with a 5-mL sample loop, and an SP 100 UV/VIS detector (ThermoSeparation) operated at 210 nm. Electrospray ionization (ESI) and tandem mass spectra were obtained on a quadrupole ion trap instrument (LCQ, Finnigan MAT, San Jose, Calif.). NMR spectra were recorded on Bruker AVANCE instruments (Bremen, Germany). Resonance frequencies were 500 and 600 MHz for ^1H and 127 MHz for ^13C. The samples were dissolved in H2O/D2O (8/2, v/v).

[3] = after systemic administration; cited from earlier work
[4] = test system: abstinence-like signs induced by neuropeptide FF (1); conditions: icv administration; cited from earlier work
[5] = test system: naloxone-precipitated withdrawal symptoms; conditions: cited from earlier work

| Compound | Relative Binding Index (RBI) [1] [a.u.] | further results |
| --- | --- | --- |
| CN(C)c1cccc2c(S(=O)(=O)NCC(=O)NC(CO)C(=O)NC(CCCNC(=N)N)C(N)=O)cccc12 (stereo not drawn) [Compound 5, dansyl-Gly-Ser-Arg-NH2] (Dansyl-Gly-Ser-Arg-NH2; configuration not given here) | 46 | Ki [1]: 1400 ± 500 nM; increase in binding affinity compared to 3 ([1]; ratio of Ki values): approximately 10 fold; kIAM′ (IAM capacity factor) [2]: 8.0; log kIAM′ [2]: 0.90 |
| CN(C)c1cccc2c(S(=O)(=O)N[C@@H](Cc3c[nH]c4ccccc34)C(=O)N3CCC[C@H]3C(=O)N[C@@H](CCCNC(=N)N)C(N)=O)cccc12 [Dansyl-WPR-amide] (Dansyl-Trp-Pro-Arg-NH2) | 12 | – |
| CN(C)c1cccc2c(S(=O)(=O)N[C@@H](Cc3c[nH]c4ccccc34)C(=O)N[C@@H](CCC(N)=O)C(=O)N[C@@H](CCCNC(=N)N)C(N)=O)cccc12 [Dansyl-WQR-amide] (Dansyl-Trp-Gln-Arg-NH2) | 22 | – |
| CN(C)c1cccc2c(S(=O)(=O)N[C@@H](Cc3c[nH]c4ccccc34)C(=O)N[C@@H](CCCNC(=N)N)C(=O)N[C@@H](CCCNC(=N)N)C(N)=O)cccc12 [Dansyl-WRR-amide] (Dansyl-Trp-Arg-Arg-NH2) | 7 | – |
| CN(C)c1cccc2c(S(=O)(=O)N[C@@H](Cc3c[nH]c4ccccc34)C(=O)N[C@@H](CO)C(=O)N[C@@H](CCCNC(=N)N)C(N)=O)cccc12 [Dansyl-WSR-amide] (Dansyl-Trp-Ser-Arg-NH2) | 29 | – |
| C[C@@H](O)[C@H](NC(=O)[C@H](Cc1c[nH]c2ccccc12)NS(=O)(=O)c1cccc2c(N(C)C)cccc12)C(=O)N[C@@H](CCCNC(=N)N)C(N)=O [Dansyl-WTR-amide] (Dansyl-Trp-Thr-Arg-NH2) | 14 | – |
| CC(C)[C@H](NC(=O)[C@H](Cc1c[nH]c2ccccc12)NS(=O)(=O)c1cccc2c(N(C)C)cccc12)C(=O)N[C@@H](CCCNC(=N)N)C(N)=O [Dansyl-WVR-amide] (Dansyl-Trp-Val-Arg-NH2) | 4 | – |
| CN(C)c1cccc2c(S(=O)(=O)N[C@@H](Cc3c[nH]c4ccccc34)C(=O)N[C@@H](Cc3c[nH]c4ccccc34)C(=O)N[C@@H](CCCNC(=N)N)C(N)=O)cccc12 [Dansyl-WWR-amide] (Dansyl-Trp-Trp-Arg-NH2) | 17 | – |
| CN(C)c1cccc2c(S(=O)(=O)N[C@@H](Cc3c[nH]c4ccccc34)C(=O)N[C@@H](Cc3ccc(O)cc3)C(=O)N[C@@H](CCCNC(=N)N)C(N)=O)cccc12 [Dansyl-WYR-amide] (Dansyl-Trp-Tyr-Arg-NH2) | 7 | – |
| CN(C)c1cccc2c(S(=O)(=O)N[C@@H](Cc3ccc(O)cc3)C(=O)N[C@@H](Cc3ccccc3)C(=O)N[C@@H](CCCNC(=N)N)C(N)=O)cccc12 [Dansyl-YFR-amide] (Dansyl-Tyr-Phe-Arg-NH2) | 6 | – |
| CN(C)c1cccc2c(S(=O)(=O)N[C@@H](Cc3ccc(O)cc3)C(=O)NCC(=O)N[C@@H](CCCNC(=N)N)C(N)=O)cccc12 [Dansyl-YGR-amide] (Dansyl-Tyr-Gly-Arg-NH2) | 12 | – |
| CN(C)c1cccc2c(S(=O)(=O)N[C@@H](Cc3ccc(O)cc3)C(=O)N3CCC[C@H]3C(=O)N[C@@H](CCCNC(=N)N)C(N)=O)cccc12 [Dansyl-YPR-amide] (Dansyl-Tyr-Pro-Arg-NH2) | 10 | – |
| CN(C)c1cccc2c(S(=O)(=O)N[C@@H](Cc3ccc(O)cc3)C(=O)N[C@@H](Cc3c[nH]c4ccccc34)C(=O)N[C@@H](CCCNC(=N)N)C(N)=O)cccc12 [Dansyl-YWR-amide] (Dansyl-Tyr-Trp-Arg-NH2) | 16 | – |
| CN(C)c1cccc2c(S(=O)(=O)N[C@@H](Cc3ccc(O)cc3)C(=O)N[C@@H](Cc3ccc(O)cc3)C(=O)N[C@@H](CCCNC(=N)N)C(N)=O)cccc12 [Dansyl-YYR-amide] (Dansyl-Tyr-Tyr-Arg-NH2) | 6 | – |
| Desaminotyrosyl-Phe-Leu-Phe-Gln-Pro-Gln-Arg-NH2 (Desaminotyrosyl-FLFQPQR-NH2; SMILES CC(C)C[C@H](NC(=O)[C@H](Cc1ccccc1)NC(=O)CCc1ccc(O)cc1)C(=O)N[C@@H](Cc1ccccc1)C(=O)N[C@@H](CCC(N)=O)C(=O)N1CCC[C@H]1C(=O)N[C@@H](CCC(N)=O)C(=O)N[C@@H](CCCNC(=N)N)C(N)=O) [Compound 2] | – | CNS bioavailability [3]: did not show any CNS bioavailability; abstinence-like signs induced by 1 in opiate-naive rats [4]: attenuated; Ki [1]: 840 ± 180 nM; abstinence signs upon naloxone challenge in morphine-dependent animals ([5]; icv administration): attenuated |
| Pro-Phe-Arg(Tic)-NH2 [Compound 3a] | – | potency (or efficacy) in the pharmacological tests employed ([5]; compared with 3): less than that of 3; naloxone-precipitated withdrawal symptoms in morphine-dependent rats ([5]; systemic administration): attenuated |

Continued, in another order:

| Relative Binding Index (RBI) [1] [a.u.] | Compound | further results |
| --- | --- | --- |
| −42 | C[C@H](NC(=O)[C@H](Cc1ccc(O)cc1)NS(=O)(=O)c1cccc2c(N(C)C)cccc12)C(=O)N[C@@H](CCCNC(=N)N)C(N)=O [Dansyl-YAR-amide] (Dansyl-Tyr-Ala-Arg-NH2) | – |
| −11 | CN(C)c1cccc2c(S(=O)(=O)N[C@@H](Cc3ccc(O)cc3)C(=O)N[C@@H](CC(=O)O)C(=O)N[C@@H](CCCNC(=N)N)C(N)=O)cccc12 [Dansyl-YDR-amide] (Dansyl-Tyr-Asp-Arg-NH2) | – |
| 7 | CN(C)c1cccc2c(S(=O)(=O)N[C@@H](Cc3ccc(O)cc3)C(=O)N[C@@H](CCC(=O)O)C(=O)N[C@@H](CCCNC(=N)N)C(N)=O)cccc12 [Dansyl-YER-amide] (Dansyl-Tyr-Glu-Arg-NH2) | – |
| 1 | CN(C)c1cccc2c(S(=O)(=O)N[C@@H](Cc3ccc(O)cc3)C(=O)N[C@@H](Cc3cnc[nH]3)C(=O)N[C@@H](CCCNC(=N)N)C(N)=O)cccc12 [Dansyl-YHR-amide] (Dansyl-Tyr-His-Arg-NH2) | – |
| 13 | CC[C@H](C)[C@H](NC(=O)[C@H](Cc1ccc(O)cc1)NS(=O)(=O)c1cccc2c(N(C)C)cccc12)C(=O)N[C@@H](CCCNC(=N)N)C(N)=O [Dansyl-YIR-amide] (Dansyl-Tyr-Ile-Arg-NH2) | – |
| 5 | CN(C)c1cccc2c(S(=O)(=O)N[C@@H](Cc3ccc(O)cc3)C(=O)N[C@@H](CCCCN)C(=O)N[C@@H](CCCNC(=N)N)C(N)=O)cccc12 [Dansyl-YKR-amide] (Dansyl-Tyr-Lys-Arg-NH2) | – |
| −1 | CC(C)C[C@H](NC(=O)[C@H](Cc1ccc(O)cc1)NS(=O)(=O)c1cccc2c(N(C)C)cccc12)C(=O)N[C@@H](CCCNC(=N)N)C(N)=O [Dansyl-YLR-amide] (Dansyl-Tyr-Leu-Arg-NH2) | – |
| 7 | CSCC[C@H](NC(=O)[C@H](Cc1ccc(O)cc1)NS(=O)(=O)c1cccc2c(N(C)C)cccc12)C(=O)N[C@@H](CCCNC(=N)N)C(N)=O [Dansyl-YMR-amide] (Dansyl-Tyr-Met-Arg-NH2) | – |
| 8 | CN(C)c1cccc2c(S(=O)(=O)N[C@@H](Cc3ccc(O)cc3)C(=O)N[C@@H](CC(N)=O)C(=O)N[C@@H](CCCNC(=N)N)C(N)=O)cccc12 [Dansyl-YNR-amide] (Dansyl-Tyr-Asn-Arg-NH2) | – |
| 21 | CN(C)c1cccc2c(S(=O)(=O)N[C@@H](Cc3ccc(O)cc3)C(=O)N[C@@H](CCC(N)=O)C(=O)N[C@@H](CCCNC(=N)N)C(N)=O)cccc12 [Dansyl-YQR-amide] (Dansyl-Tyr-Gln-Arg-NH2) | – |
| 6 | CN(C)c1cccc2c(S(=O)(=O)N[C@@H](Cc3ccc(O)cc3)C(=O)N[C@@H](CCCNC(=N)N)C(=O)N[C@@H](CCCNC(=N)N)C(N)=O)cccc12 [Dansyl-YRR-amide] (Dansyl-Tyr-Arg-Arg-NH2) | – |
| 28 | CN(C)c1cccc2c(S(=O)(=O)N[C@@H](Cc3ccc(O)cc3)C(=O)N[C@@H](CO)C(=O)N[C@@H](CCCNC(=N)N)C(N)=O)cccc12 [Dansyl-YSR-amide] (Dansyl-Tyr-Ser-Arg-NH2) | – |
| 13 | C[C@@H](O)[C@H](NC(=O)[C@H](Cc1ccc(O)cc1)NS(=O)(=O)c1cccc2c(N(C)C)cccc12)C(=O)N[C@@H](CCCNC(=N)N)C(N)=O [Dansyl-YTR-amide] (Dansyl-Tyr-Thr-Arg-NH2) | – |
| 2 | CC(C)[C@H](NC(=O)[C@H](Cc1ccc(O)cc1)NS(=O)(=O)c1cccc2c(N(C)C)cccc12)C(=O)N[C@@H](CCCNC(=N)N)C(N)=O [Dansyl-YVR-amide] (Dansyl-Tyr-Val-Arg-NH2) | – |
